Experimental data: PMC9490236, “Accurate de novo design of membrane-traversing macrocycles” (Cell, 2022)
Where a SMILES comes first, the peptide text is derived from it. [ ]: non-standard residue; d: D form. dNMeF = CN[C@H](Cc1ccccc1)C(=O)O; NMeL = CN[C@@H](CC(C)C)C(=O)O; dNMeL = CN[C@H](CC(C)C)C(=O)O; NMeA = CN[C@@H](C)C(=O)O; dNMeA = CN[C@H](C)C(=O)O; Aib = CC(C)(N)C(=O)O

How the values were obtained:
[1] = PAMPA
[2] = Caco-2 permeability assay (apical to basolateral); format: in vitro ADME, human; settings: for Papp A→B: Caco-2, Caco_Papp_Average
Procedure: (§1) Human colon adenocarcinoma-derived Caco-2 cell line was used as a model system to investigate the intestinal epithelial permeability of our designs. Caco-2 cells were propagated in T125 flasks (Corning, Merck) using Dulbecco’s modified Eagle medium supplemented with 10% (v/v) fetal bovine serum, 1% (v/v) nonessential amino acids, and 1% (v/v) penicillin-streptomycin (Gibco, Thermo Fisher Scientific) at 37°C in an atmosphere of 5% CO2. Cells were subcultured when they reached 80% confluence.
(§2) The permeability of designed peptides was evaluated using an accelerated 6-day Caco-2 permeability assay as described previously ([Sevin et al., 2013]). In brief, cells were seeded into the 12-well Transwell plates with 0.4 μm polyester membrane inserts (Corning, Merck) to give 4.0 × 10^5 cells/well. The complete assay medium contained Dulbecco’s modified Eagle medium supplemented with 10% (v/v) fetal bovine serum, 1% (v/v) nonessential amino acids, and 0.4 μg/mL puromycin. The medium in plates was renewed every second day. The inserts received 0.75 mL of assay medium in the upper compartment (apical chamber) and 1.5 mL in the bottom compartment (basolateral chamber) individually. After 6-day incubation or until the cells formed monolayers, the medium in the apical and basolateral chamber was replaced with peptide solutions at 50 μM or Hanks' Balanced Salt Solution (HBSS), separately. The plates were incubated for 90 min at 37°C on an orbital shaker (60 rpm). The peptide concentration of solutions in the apical and basolateral compartments was subsequently quantified using LC-MS (Qstar Elite, AB Sciex Australia) to evaluate the transmembrane flux of peptides in the apical-to-basolateral direction. Membrane integrity of the Caco-2 cell monolayer was validated using trans-epithelial electrical resistance (TEER) measurements before and after the assays. Atenolol and quinidine were included as negative and positive controls in all assays.

[3] = test system: Caco-2 cells; assay: Caco-2 permeability assay (apical to basolateral); format: in vitro ADME, human; settings: Caco-2
Procedure: as §1, §2

[4] = in vitro; settings: PAMPA, PAMPA_Papp_Avg

With `CC[C@@H](C)[C@H]1NC(=O)[C@H](Cc2ccccc2)NC(=O)[C@@H](CC(C)C)N(C)C(=O)[C@@H]2CCCN2C(=O)[C@@H](C(C)C)NC(=O)[C@@H](C)N(C)C(=O)[C@H]2CCCN2C(=O)[C@@H](CC(C)C)NC(=O)[C@H](CC(C)C)NC(=O)[C@@H]2CCCN2C1=O` [Design D10.30, PRO *DLEU PHE DILE PRO LEU DLEU DPRO *DALA DVAL] (cyclo(F[dI]PL[dL][dP][dNMeA][dV]P[dNMeL])) the PAMPA_R1 [1] was 5.23E-06, the PAMPA_R3 [1] was 4.05E-06 and the Papp A→B [2] was 16.1 ×10⁻⁶ cm/s. It also gave a Papp at 90 min, 50 µM ([2]; human, Caco-2) greater than 10 ×10⁻⁶ cm/s, a Caco_R1 [3] of 15.3 and a Caco_R3 [3] of 15.5. The Papp [4] was 4.78 ×10⁻⁶ cm/s.
Work on `CC[C@@H](C)[C@H]1NC(=O)[C@H](CC(C)C)NC(=O)[C@@H](CC(C)C)NC(=O)[C@H](C(C)C)NC(=O)[C@@H](Cc2ccccc2)N(C)C(=O)[C@@H]2CCCN2C(=O)[C@@H](CC(C)C)NC(=O)[C@H](CC(C)C)N(C)C(=O)[C@H]2CCCN2C1=O` [Design D9.3, LEU DILE DPRO *LEU DLEU PRO *DPHE VAL DLEU] (cyclo(L[dI][dP][NMeL][dL]P[dNMeF]V[dL])) yielded a PAMPA_R1 [1] of 3.06E-06, a PAMPA_R3 [1] of 2.01E-06 and a Papp A→B [2] of 3.53 ×10⁻⁶ cm/s. The Caco_R1 [3] was 2.82, the Caco_R3 [3] was 3.81 and the Papp [4] was 2.33 ×10⁻⁶ cm/s.
Compound `CC[C@@H](C)[C@H]1NC(=O)[C@@H](CC(C)C)N(C)C(=O)[C@@H]2CCCN2C(=O)[C@@H]([C@H](C)CC)NC(=O)[C@@H](CC(C)C)NC(=O)[C@@H](CC(C)C)N(C)C(=O)[C@@H]2CCCN2C(=O)[C@@H](C(C)C)NC1=O` [Design D8.8, PRO *DLEU DLEU DILE PRO *DLEU DILE DVAL] (cyclo(P[dNMeL][dI][dV]P[dNMeL][dL][dI])) has a PAMPA_R1 [1] of 9.54E-06, a PAMPA_R3 [1] of 3.47E-06 and a Papp A→B [2] of 23 ×10⁻⁶ cm/s. The Caco_R1 [3] was 20.91, the Caco_R3 [3] was 24.11 and the Papp [4] was 5.9 ×10⁻⁶ cm/s.
Work on `CC[C@H](C)[C@@H]1NC(=O)[C@@H](C(C)C)NC(=O)[C@@H](CC(C)C)N(C)C(=O)[C@H]2CCCN2C(=O)[C@@H](CC(C)C)NC(=O)[C@@H](CC(C)C)N(C)C(=O)[C@H](CC(C)C)NC(=O)[C@H]2CCCN2C(=O)[C@H](C)N(C)C(=O)[C@H]2CCCN2C1=O` [Design D10.41, DPRO *DLEU DVAL ILE DPRO *ALA DPRO LEU *DLEU DLEU] (cyclo(I[dP][NMeA][dP]L[dNMeL][dL][dP][dNMeL][dV])) yielded a PAMPA_R1 [1] of 5.92E-06, a PAMPA_R3 [1] of 5.38E-06 and a Papp A→B [2] of 7.66 ×10⁻⁶ cm/s. For the same compound, the Caco_R1 [3] was 4.42, the Caco_R3 [3] was 10.34 and the Papp [4] was 5.69 ×10⁻⁶ cm/s.
Compound `CC[C@H](C)[C@@H]1NC(=O)[C@@H]2CCCN2C(=O)[C@H]2CCCN2C(=O)[C@@H](CC(C)C)NC(=O)[C@@H](CC(C)C)N(C)C(=O)[C@@H](C(C)C)NC(=O)[C@H](C(C)C)NC(=O)[C@H]2CCCN2C(=O)[C@@H]2CCCN2C(=O)[C@H]([C@@H](C)CC)NC(=O)[C@H](C)N(C)C1=O` [Design D11.13, PRO DPRO VAL DVAL *DLEU DLEU DPRO PRO ILE *ALA ILE] (cyclo(I[NMeA]IP[dP]V[dV][dNMeL][dL][dP]P)) has a PAMPA_R1 [1] of 9.91E-07, a PAMPA_R3 [1] of 1.30E-06 and a Papp A→B [2] of 4.5 ×10⁻⁶ cm/s. The Caco_R1 [3] was 4.34, the Caco_R3 [3] was 4.75 and the Papp [4] was 1.07 ×10⁻⁶ cm/s.
Work on `CC[C@H](C)[C@@H]1NC(=O)[C@@H](CC(C)C)N(C)C(=O)[C@@H]2CCCN2C(=O)[C@H](C(C)C)NC(=O)C(C)(C)NC(=O)[C@H](CC(C)C)NC(=O)C(C)(C)NC(=O)[C@@H]2CCCN2C(=O)[C@H]2CCCN2C1=O` [Design D9.1, DPRO PRO AIB LEU AIB VAL PRO *DLEU ILE] (cyclo([Aib]L[Aib]VP[dNMeL]I[dP]P)) yielded a PAMPA_R1 [1] of 1.43E-06, a PAMPA_R3 [1] of 1.63E-06 and a Papp A→B [2] of 0.897 ×10⁻⁶ cm/s. The Caco_R1 [3] was 0.42, the Caco_R3 [3] was 2.09 and the Papp [4] was 1.59 ×10⁻⁶ cm/s.
Work on `CC[C@@H](C)[C@H]1NC(=O)[C@H](CC(C)C)N(C)C(=O)[C@H]2CCCN2C(=O)[C@H](CC(C)C)NC(=O)[C@H](Cc2ccccc2)N(C)C(=O)[C@H](CC(C)C)N(C)C(=O)[C@@H](C(C)C)NC(=O)[C@H](C)NC(=O)[C@H]2CCCN2C(=O)[C@@H]2CCCN2C1=O` [Design D10.17.p2, *LEU *PHE LEU DPRO *LEU DILE PRO DPRO ALA DVAL] yielded a PAMPA_R1 [1] of 3.37E-06, a PAMPA_R3 [1] of 2.91E-06 and a Papp A→B [2] of 8.7 ×10⁻⁶ cm/s. It also gave a Caco_R1 [3] of 12.57, a Caco_R3 [3] of 7.84 and a Papp [4] of 2.69 ×10⁻⁶ cm/s.
